Tests used:
[1] = pH of triacetin when applied to the skin; format: physicochemical
Text: Triacetin also acts to decrease the pH of the application area It is known that fungus like moist areas and thrive in environments with a normal acidity, pH 6.5 to 7.2. Yeasts die in low pH environments, i.e. pH levels in the range of 4.5 or less, and infectious fungi are adversely affected in low pH environments. Triacetin has a pH of 4.0 when applied to the skin, and effectively lowers the pH of the application area. As triacetin breaks down after application, it produces acetic acid, a weak antifungal agent. Triacetin also acts to lower the moisture content in the application area, which aids in creating an adverse environment for fungal growth. In high concentrations, such as in this preparation, triacetin reduces the secretion of moisture during perspiration, due to an astringent effect, or antihyperhydrosis effect. Triacetin also acts to reduce moisture by bonding with the moisture available in the affected area, reducing the opportunity or availability of the moisture to be utilized by the fungal cells. After application, triacetin also coats the application area, saturating the epidermis and limiting moisture available for fungal growth. Finally, triacetin can also be used for nutritional support whether administered orally, topically or intravenously, to restore healthy, normal skin as is seen with the topical administration of this preparation.

[2] = test system: superficial fungal infections of the skin; conditions: used alone; previous clinical studies by others; cited from earlier work
[3] = test system: nails infected by dermatophytes; conditions: cited from earlier work
[4] = test system: Trichophyton mentagrophytes; conditions: cited from earlier work
Trichophyton tonsurans = conditions: cited from earlier work
Microsporum gypseum = conditions: cited from earlier work
Microsporum japonicum = conditions: cited from earlier work
[5] = test system: Trichophyton schoenleinii; conditions: cited from earlier work
Microsporum canis = conditions: cited from earlier work
Trichophyton rubrum = conditions: cited from earlier work
Epidermophytom flocossum = conditions: cited from earlier work
Microsporum audouini = conditions: cited from earlier work
Aspergillis niger = conditions: cited from earlier work
[6] = Topical vitamin A on surgical incision area in post surgical patients; format: in vivo; conditions: 50,000 international units applied topically
Text: Vitamin A is a fat soluble vitamin that is used in a wide dosage range from 5 to 50,000 I.U. to assist in healing. […] Vitamin A is also important for nutritional support. Vitamin D is also a fat soluble vitamin utilized in nutritional support. Vitamin D is not recommended in doses of over 6000 International Units per day. Topical applications with vitamin A and D have been used for years to enhance healing and repair damaged skin.

In the case of `CC(=O)OCC(COC(C)=O)OC(C)=O` [Triacetin], the pH [1] is listed as 4.0 and the “effectiveness as an antifungal agent” value [2] is listed as “only mildly effective”.
In the case of `CN(C/C=C/C#CC(C)(C)C)Cc1cccc2ccccc12` [terbinafine], the “duration of continuous daily intake needed to show some efficacy” value [3] is given as “three months or more”.
For `Cc1cccc(N(C)C(=S)Oc2ccc3ccccc3c2)c1` [tolnaftate], the in vitro activity [4] is listed as “fungistatic or fungicidal”, the in vitro activity (Trichophyton tonsurans) is listed as “fungistatic or fungicidal” and the in vitro activity (Microsporum gypseum) is listed as “fungistatic or fungicidal”. For the same compound, the in vitro activity (Microsporum japonicum) was “fungistatic or fungicidal”, the in vitro activity [5] was “fungistatic or fungicidal” and the in vitro activity (Microsporum canis) was “fungistatic or fungicidal”. For the same compound, the in vitro activity (Trichophyton rubrum) was “fungistatic or fungicidal”, the in vitro activity (Epidermophytom flocossum) was “fungistatic or fungicidal” and the in vitro activity (Microsporum audouini) was “fungistatic or fungicidal”. For the same compound, the “activity against Aspergillis niger” value (Aspergillis niger) was “varies from one strain to another”.
With Vitamin A the healing time [6] was “improved healing time”.

Reference: US20080200539A1, “Topical antifungal treatment” (priority 2002, published 2008)
